Measured values published in US11780841B2, “3,6-methano-1H-pyrrolo[3,2-b]pyridine and 3,6-methano-1H-pyrrolo[3,2-c]pyridine compounds and medicaments using same” (priority 2018, dated 2023).

System: recombinant rabies virus 1088 strain expressing Gaussia Luciferase (GLuc) (1088/GLuc)
Type: cell-based
Settings: read-out: Anti-rabies activity

Row | Compound | IC50 [µM]
1 | CC(C)CNC(=O)[C@]12NC[C@H]3C[C@H]1CN(CCO)[C@H]2[C@@H]3Cc1cccc2ccccc12 [IB-621] | < 5
2 | CCCCCCNC(=O)[C@]12NC[C@H]3C[C@H]1CN(CC(N)=O)[C@H]2[C@@H]3Cc1ccccc1 [IB-105] | 10 to 30
3 | CC(C)CCN1C[C@H]2C[C@]3(C(=O)NCc4ccccc4)NC[C@H]2[C@H]1[C@H]3CC(C)C [IF-851] | 10 to 30
4 | CC(C)CNC(=O)[C@]12N=C[C@@H]3C[C@H]1CN(Cc1ccccc1)[C@H]2[C@@H]3CC(C)C (relative stereo) [IIB-4] | 5 to 10
5 | N=C(N)NCCCNC(=O)[C@@]12C[C@@H]3CN(Cc4cccc5ccccc45)[C@@H]([C@@H]3CN1)[C@H]2Cc1ccccc1 [IF-386] | 10 to 30
6 | CC(C)CCN1C[C@H]2C[C@]3(C(=O)NCCC(=O)O)NC[C@H]2[C@H]1[C@H]3CCc1ccccc1 [IF-830] | 10 to 30
7 | NC(=O)CCNC(=O)[C@]12NC[C@H]3C[C@H]1CN(Cc1ccccc1)[C@H]2[C@@H]3Cc1ccccc1 [IB-734] | 10 to 30
8 | O=C(O)CC[C@@H]1[C@@H]2[C@@H]3CN[C@@]1(C(=O)NCc1ccc(O)cc1)C[C@@H]3CN2CC1CCCCC1 [IF-447] | 10 to 30
9 | O=C(O)CC[C@@H]1[C@H]2CN[C@@]3(C(=O)NCc4cccc5ccccc45)[C@@H](C2)CN(CCO)[C@@H]13 [IB-425] | 10 to 30
10 | CC(C)CC[C@@H]1[C@H]2CN[C@@]3(C(=O)NCCC(N)=O)[C@@H](C2)CN(Cc2cccc4ccccc24)[C@@H]13 [IB-349] | < 5
11 | NC(=O)CN1C[C@H]2C[C@]3(C(=O)NCc4cccc5ccccc45)NC[C@H]2[C@H]1[C@H]3CCc1ccccc1 (relative stereo) [IF-85] | 10 to 30
12 | CC(C)CNC(=O)[C@@]12C[C@@H]3CN(CCc4ccccc4)[C@@H]([C@@H]3CN1)[C@H]2Cc1ccccc1 [IF-641] | < 5
13 | CC(C)C[C@@H]1[C@H]2CN[C@@]3(C(=O)NCc4ccc(O)cc4)[C@@H](C2)CN(CCc2ccccc2)[C@@H]13 [IB-449] | 10 to 30
14 | CC(C)C[C@@H]1[C@@H]2[C@@H]3CN[C@@]1(C(=O)NCc1cccc4ccccc14)C[C@@H]3CN2CC(N)=O (relative stereo) [IF-81] | 10 to 30
15 | O=C(NCc1ccc(O)cc1)[C@@]12C[C@@H]3CN(Cc4ccccc4)[C@@H]([C@@H]3CN1)[C@H]2CCc1ccccc1 (relative stereo) [IF-565] | < 5
16 | CCCCCCNC(=O)[C@@]12C[C@@H]3CN(CC(N)=O)[C@@H]([C@@H]3CN1)[C@H]2CCc1ccccc1 [IF-109] | 10 to 30
17 | CC(C)CNC(=O)[C@@]12C[C@@H]3CN(Cc4ccccc4)[C@@H]([C@@H]3CN1)[C@H]2CCc1ccccc1 [IF-670] | < 5
18 | CC(C)NC(=O)[C@@]12C[C@@H]3CN(Cc4cccc5ccccc45)[C@@H]([C@@H]3CN1)[C@H]2CCCNC(=N)N [IF-244] | < 5
19 | CC(C)CN1C[C@H]2C[C@]3(C(=O)NCc4ccc(O)cc4)NC[C@H]2[C@H]1[C@H]3CCc1ccccc1 (relative stereo) [IF-576] | 10 to 30
20 | CC(C)CCNC(=O)[C@@]12C[C@@H]3CN(CCc4ccccc4)[C@@H]([C@@H]3CN1)[C@H]2Cc1ccccc1 [IF-744] | < 5
21 | CCN1C[C@H]2C[C@H]3CN(Cc4ccc(C)cc4)[C@@H]([C@@H]2CC(C)C)[C@]31C(=O)NCc1ccccc1 (relative stereo) [IB-880] | < 5
22 | O=C(NCc1ccc(F)cc1)[C@]12NC[C@H]3C[C@H]1CN(CCO)[C@H]2[C@@H]3Cc1cccc2ccccc12 [IB-831] | < 5
23 | CC(C)CC[C@@H]1[C@@H]2[C@@H]3CN[C@@]1(C(=O)NCCc1ccccc1)C[C@@H]3CN2CC1CCCCC1 [IF-717] | < 5
24 | CC(C)CN1CC2CC3CNC2(C(=O)NCCC(N)=O)C1C3CCc1ccccc1 (stereo not drawn) [IB-539] | 10 to 30
25 | O=C(NCCO)[C@]12NC[C@H]3C[C@H]1CN(Cc1cccc4ccccc14)[C@H]2[C@@H]3Cc1ccc(O)cc1 [IB-459] | 10 to 30
26 | CC(C)CC[C@@H]1[C@@H]2[C@@H]3CN[C@@]1(C(=O)NCCC(N)=O)C[C@@H]3CN2CC(C)C [IF-300] | 10 to 30

Same assay, conditions: read-out: IC50

Row | Compound | IC50 [µM]
27 | CC(C)CNC(=O)[C@]12N=C[C@@H]3C[C@H]1CN(Cc1ccccc1)[C@H]2[C@@H]3CC(C)C (relative stereo) [IIB-4] | 8.9
